Assays:
[1] = molecular target: Platelet-derived growth factor receptor beta (Rattus norvegicus, UniProt Q05030); experiment: Inhibition of PDGF-BB induced PDGF-B receptor autophosphorylation in rat mesangial cells.; type: functional, cell-based
[2] = molecular target: Epidermal growth factor receptor (Homo sapiens, UniProt P00533); experiment: Inhibition of epidermal growth factor receptor (EGF-R) autophosphorylation in A431 cells; type: functional, cell-based, A-431
[3] = molecular target: Cyclin-dependent kinase 1 (Homo sapiens, UniProt P06493); experiment: Inhibition of Cdc2
Cyclin-dependent kinase 1, sequence (P06493 whole entry): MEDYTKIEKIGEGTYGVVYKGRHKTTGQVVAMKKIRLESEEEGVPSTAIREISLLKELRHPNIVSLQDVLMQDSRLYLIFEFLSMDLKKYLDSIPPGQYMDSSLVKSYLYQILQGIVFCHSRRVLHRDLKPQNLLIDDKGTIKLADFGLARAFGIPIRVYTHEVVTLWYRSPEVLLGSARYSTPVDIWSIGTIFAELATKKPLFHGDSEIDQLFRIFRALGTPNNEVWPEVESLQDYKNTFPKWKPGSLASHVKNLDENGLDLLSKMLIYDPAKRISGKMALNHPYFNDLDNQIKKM

[4] = molecular target: Mitogen-activated protein kinase; ERK1/ERK2 (Homo sapiens, UniProt P27361+P28482); experiment: Inhibition of Mitogen-activated protein kinase; type: protein assay
[5] = molecular target: cAMP-dependent protein kinase (PKA) (Homo sapiens, UniProt P22694+P17612+P22612); experiment: Inhibition of Protein kinase A; type: protein assay
Protein kinase C (PKC) = experiment: Inhibition of Protein kinase C; type: protein assay
[6] = molecular target: Proto-oncogene tyrosine-protein kinase Src (Homo sapiens, UniProt P12931); experiment: Inhibition of c-SRC
Proto-oncogene tyrosine-protein kinase Src, sequence (P12931 2-536 limits assumed): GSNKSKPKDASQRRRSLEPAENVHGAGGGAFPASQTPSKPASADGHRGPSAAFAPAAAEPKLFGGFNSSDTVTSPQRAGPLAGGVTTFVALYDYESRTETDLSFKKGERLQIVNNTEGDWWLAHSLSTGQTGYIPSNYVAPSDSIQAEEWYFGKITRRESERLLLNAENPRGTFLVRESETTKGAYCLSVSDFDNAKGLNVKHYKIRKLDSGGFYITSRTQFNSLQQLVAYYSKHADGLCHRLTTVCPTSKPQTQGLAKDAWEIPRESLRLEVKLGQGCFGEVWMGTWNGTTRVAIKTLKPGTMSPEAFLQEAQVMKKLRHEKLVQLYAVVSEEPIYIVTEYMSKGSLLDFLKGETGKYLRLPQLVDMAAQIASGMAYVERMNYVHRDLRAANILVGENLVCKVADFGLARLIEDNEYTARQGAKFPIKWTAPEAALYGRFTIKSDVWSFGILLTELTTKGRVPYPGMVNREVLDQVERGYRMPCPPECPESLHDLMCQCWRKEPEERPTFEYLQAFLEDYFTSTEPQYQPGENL

Platelet-derived growth factor receptor beta, sequence (Q05030 whole entry): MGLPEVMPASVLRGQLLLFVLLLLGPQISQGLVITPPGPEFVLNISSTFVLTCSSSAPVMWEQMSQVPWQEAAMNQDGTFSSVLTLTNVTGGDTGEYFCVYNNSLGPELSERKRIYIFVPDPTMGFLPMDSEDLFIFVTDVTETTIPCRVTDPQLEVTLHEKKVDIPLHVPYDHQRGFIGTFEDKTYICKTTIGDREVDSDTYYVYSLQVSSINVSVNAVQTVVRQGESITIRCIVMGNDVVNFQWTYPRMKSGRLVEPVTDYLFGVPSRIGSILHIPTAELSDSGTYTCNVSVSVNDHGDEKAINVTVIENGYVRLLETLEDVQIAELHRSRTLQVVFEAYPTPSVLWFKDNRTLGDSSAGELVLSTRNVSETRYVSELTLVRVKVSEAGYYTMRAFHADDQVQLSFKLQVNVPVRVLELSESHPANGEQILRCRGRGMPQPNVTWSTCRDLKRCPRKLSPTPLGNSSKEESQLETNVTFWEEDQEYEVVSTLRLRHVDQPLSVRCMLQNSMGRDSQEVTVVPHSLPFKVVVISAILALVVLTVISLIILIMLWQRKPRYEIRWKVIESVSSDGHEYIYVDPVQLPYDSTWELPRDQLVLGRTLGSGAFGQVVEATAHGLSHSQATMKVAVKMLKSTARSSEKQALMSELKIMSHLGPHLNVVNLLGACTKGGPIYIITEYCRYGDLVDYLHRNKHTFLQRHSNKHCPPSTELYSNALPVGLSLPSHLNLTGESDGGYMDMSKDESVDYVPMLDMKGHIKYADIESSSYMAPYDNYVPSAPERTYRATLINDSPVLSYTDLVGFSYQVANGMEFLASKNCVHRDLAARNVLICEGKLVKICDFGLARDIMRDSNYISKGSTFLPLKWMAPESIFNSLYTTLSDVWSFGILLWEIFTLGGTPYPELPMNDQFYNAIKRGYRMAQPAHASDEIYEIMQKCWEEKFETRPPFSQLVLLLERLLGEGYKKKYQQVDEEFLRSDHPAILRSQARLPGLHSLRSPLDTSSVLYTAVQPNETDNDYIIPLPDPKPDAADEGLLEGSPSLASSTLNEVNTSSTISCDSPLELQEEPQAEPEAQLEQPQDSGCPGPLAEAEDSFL
Epidermal growth factor receptor, sequence (P00533 whole entry): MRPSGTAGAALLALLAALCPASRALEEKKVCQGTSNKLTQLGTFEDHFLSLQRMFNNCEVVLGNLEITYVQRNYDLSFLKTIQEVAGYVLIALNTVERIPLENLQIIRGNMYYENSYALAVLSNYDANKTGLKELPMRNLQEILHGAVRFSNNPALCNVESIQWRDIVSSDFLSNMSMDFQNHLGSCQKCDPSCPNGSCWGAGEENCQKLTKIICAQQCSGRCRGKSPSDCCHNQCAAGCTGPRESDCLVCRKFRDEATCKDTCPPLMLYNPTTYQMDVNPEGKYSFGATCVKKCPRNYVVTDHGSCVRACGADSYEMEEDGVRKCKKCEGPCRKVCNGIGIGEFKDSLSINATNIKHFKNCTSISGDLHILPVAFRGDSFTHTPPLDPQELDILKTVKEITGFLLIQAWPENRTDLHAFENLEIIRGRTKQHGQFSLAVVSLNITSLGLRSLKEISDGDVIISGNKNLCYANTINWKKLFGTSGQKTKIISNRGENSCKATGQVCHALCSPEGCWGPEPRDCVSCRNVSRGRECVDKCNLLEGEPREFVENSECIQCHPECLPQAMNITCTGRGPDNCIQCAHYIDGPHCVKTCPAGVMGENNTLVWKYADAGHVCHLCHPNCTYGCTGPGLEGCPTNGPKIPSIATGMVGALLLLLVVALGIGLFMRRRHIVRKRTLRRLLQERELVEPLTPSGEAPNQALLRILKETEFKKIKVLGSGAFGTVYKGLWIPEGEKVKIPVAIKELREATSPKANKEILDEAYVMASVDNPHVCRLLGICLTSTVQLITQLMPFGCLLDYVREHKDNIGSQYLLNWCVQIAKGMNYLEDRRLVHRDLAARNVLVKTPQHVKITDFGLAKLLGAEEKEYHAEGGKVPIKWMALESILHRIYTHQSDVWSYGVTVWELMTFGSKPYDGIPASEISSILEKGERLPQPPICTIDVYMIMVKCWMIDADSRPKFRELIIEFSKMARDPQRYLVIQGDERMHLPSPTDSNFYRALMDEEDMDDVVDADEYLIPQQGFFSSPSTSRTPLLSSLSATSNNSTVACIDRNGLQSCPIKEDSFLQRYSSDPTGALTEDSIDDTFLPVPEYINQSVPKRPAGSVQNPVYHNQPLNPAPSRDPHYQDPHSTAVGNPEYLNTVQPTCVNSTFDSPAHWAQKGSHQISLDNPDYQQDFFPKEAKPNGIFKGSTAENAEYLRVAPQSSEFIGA

Row | IC50 [1] [µM] | SMILES | other results
1 | 0.56 | COc1cc2nccc(Oc3cccc(O)c3)c2cc1OC | 
2 | 14.8 | COc1cc2ncnc(Oc3cccc(Br)c3)c2cc1OC | IC50 [2]: 0.07 µM
3 | 12.9 | CCOc1cccc(Oc2ccnc3cc(OC)c(OC)cc23)c1 | 
4 | 1.7 | COc1cc2nccc(Oc3cccc(N)c3)c2cc1OC | 
5 | 21.5 | COc1cc2nccc(Nc3cccc(Br)c3)c2cc1OC | 
6 | 8.4 | COc1cc2nccc(Oc3cccc(Br)c3)c2cc1OC | IC50 [2]: 2.5 µM
7 | 0.7 | COc1cc2nccc(Oc3cccc([N+](=O)[O-])c3)c2cc1OC | 
8 | 1.5 | COc1cc2nccc(Oc3cccc(F)c3)c2cc1OC | 
9 | 1.9 | COc1ccc(Oc2ccnc3cc(OC)c(OC)cc23)cc1 | 
10 | 6.9 | COc1cc2nccc(Oc3cccc(C)c3)c2cc1OC | 
11 | 8.4 | CCc1cccc(Oc2ccnc3cc(OC)c(OC)cc23)c1 | 
12 | 0.76 | COc1cc2nccc(Oc3ccccc3)c2cc1OC | 

The next lines start with the compound.

Row | SMILES | IC50 [1] [µM] | other results
13 | COc1ccc(Nc2ncnc3cc(OC)c(OC)cc23)cc1OC | 4.5 | IC50 [2]: 2.8 µM
14 | COc1cc2nccc(Oc3ccccc3OC)c2cc1OC | 0.6 | 
15 | COc1ccc(Oc2ccnc3cc(OC)c(OC)cc23)cc1OC |  | IC50 [3]: > 10 µM; IC50 [4]: > 10 µM; IC50 [5]: > 10 µM; IC50 (Protein kinase C (PKC)): > 20 µM; IC50 [6]: > 10 µM
16 | COc1ccc(Nc2ccnc3cc(OC)c(OC)cc23)cc1OC | 2.6 | IC50 [2]: 80.5 µM
17 | COc1cc(OC)cc(Oc2ccnc3cc(OC)c(OC)cc23)c1 | 5.5 | 
18 | COc1cc2nccc(Oc3cccc(OC)c3OC)c2cc1OC | 4.4 | 
19 | COc1cc2nccc(Oc3c(OC)cccc3OC)c2cc1OC | 69.3 | 
20 | COc1ccc(Oc2ncnc3cc(OC)c(OC)cc23)cc1OC | 0.57 | IC50 [2]: > 100 µM
